Test results as given in ChEMBL document CHEMBL4373727, “Thienopyrimidinone Derivatives That Inhibit Bacterial tRNA (Guanine37-N1)-Methyltransferase (TrmD) by Restructuring the Active Site with a Tyrosine-Flipping Mechanism” (J Med Chem, 2019).

Assay: Selectivity ratio of Kd for full length Mycobacterium tuberculosis tRNA (guanine(37)-N1)-methyltransferase expressed in Escherichia coli BL21 (DE3) to Kd for Pseudomonas aeruginosa tRNA (guanine(37)-N1)-methyltransferase (Leu5 to Asp25 residues) expressed in Escherichia coli BL21 (DE3) Rosetta T1R cells

CCCCCCCCNCc1ccc(CNC(=O)c2csc3nc[nH]c(=O)c23)cc1
Ratio: 100

NC1CCN(Cc2ccc(CNC(=O)c3csc4nc[nH]c(=O)c34)cc2)CC1
Ratio: 100 to 300
